Test results reported in patent US10197563B2, “3-D in vitro model for breast cancer dormancy” (New Jersey Institute of Technology, priority 2015, dated 2019).

Columns and labels:
MDA-MB-231 cells [1] = assay: Carboplatin cytotoxicity, trypan blue test; format: cell-based
Protocol: (§1) For determination of cell viability, treated as well as non-treated cells were used. MDA-MB-231 and T47D cells were seeded in T-175 tissue culture flasks. At 80% confluency, the growth media was replaced with fresh media containing different concentrations of carboplatin for 48 and 72 h. All experiments were repeated twice. After treatment, the culture media was collected in a 50 ml centrifugation tube, since it might contain dead cells necessary for cell counts. The cell monolayer was washed with PBS and then collected in the same tube. Cells were treated with Trypsin and, Trypsin with the cells was collected in the same 50 ml tube. The suspension was centrifuged (5 min, 1200 rpm) and the supernatant removed. The pellet was washed with PBS, centrifuged (5 min, 1200 rpm) and re-suspended again in complete culture media. Then, a small aliquot of the cell suspension (25 μl) was mixed with the same volume of 0.4% trypan blue (Sigma) solution and the sample was counted after 2 min of staining using a haemocytometer. The number of bright (viable) cells and blue cells (non-viable) were evaluated using a light microscope with a 20-fold magnification. After counting, the cell viability (CV) was expressed as the percentage of surviving cells compared to the total number of cells: CV=(viable cells/total number of cells)×100.
(§2) The concentrations of drugs that were finally toxic to at least 50% of the cell population (IC50/cytotoxicity) were determined. Then, studies were performed looking at viability over the full range of carboplatin concentrations and compared to non-treated BCCs. At day 3-post treatment, viable resistant BCCs were selected and counted using standard protocols for downstream experiments on scaffolds.

T47D cells [2] = assay: Carboplatin cytotoxicity, trypan blue test; format: cell-based
Protocol: as §1, §2

MDA-MB-231 cells [3] = assay: Carboplatin survival curve for chemotherapy treated and non-treated cells; format: cell-based; conditions: for percent viability: 220 μg/ml carboplatin
Protocol: as §1, §2

[4] = test system: MDA-MB-231 and T47D cells; assay: Western blots of breast cancer cell lines with increasing carboplatin dosage; format: cell-based; conditions: with increased carboplatin concentration
Protocol: Western blot was performed to detect the following proteins: Bax, Bcl-2, Oct-4 and Sox-2 for BCCs on scaffolds. Briefly, whole cell extracts were prepared with the NP-40 buffer and nuclear/cytoplasmic extracts with NE-PER Nuclear and Cytoplasmic Extraction kit. BCC extracts (20 μg) were subjected to electrophoresis on 4-20% SDS-PAGE (Bio-Rad; Hercules, Calif.). Proteins were transferred to PVDF membranes, and membranes were incubated overnight in the respective primary antibodies. This was followed by 2 h incubation with HRP-conjugated secondary antibodies at 1:2000 final dilutions. The latter was detected with chemiluminescence. Membranes were stripped with Restore Western Blot Stripping Buffer and then re-probed for other proteins, including β-actin mAb (1:4000 dilution). All bands were normalized to β-actin.

T47D cells [5] = assay: Flow cytometry of CD44/CD24 expression of carboplatin treated cells; format: cell-based
MDA-MB-231 cells [6] = assay: Morphology of cells post addition of carboplatin; format: cell-based
Description: For these studies carboplatin sensitivity of MDA-MB-231 cells was investigated as previously mentioned. Different subpopulations were obtained for subsequent studies on scaffolds. Under normal condition, BCCs population in culture can be seen to be composed of a heterogeneous population of giant multi-nucleated cells mixed with small single-nucleated cells (FIGS. 38a and b.). […] Therefore, cells at 3-4 days post treatment were selected as being carboplatin resistant MDA-MB-231 cells.

MDA-MB-231 cells [7] = conditions: treated cells
[8] = 2 days post treatment, maximum carboplatin concentration of 50 μg/ml
[9] = 3 days post treatment, 50 μg/ml carboplatin

For `N.N.O=C([O-])C1(C(=O)[O-])CCC1.[Pt+2]` [carboplatin], the death (MDA-MB-231 cells [1]; [8]) was 17%, the death (MDA-MB-231 cells [1]; [9]) was 25% and the death (T47D cells [2]; [8]) was 28%. For the same molecule, the death (T47D cells [2]; [9]) was 48%, the “difference in percent viability between non-treated and treated cells” value (MDA-MB-231 cells [3]; 0 to 100 μg/ml carboplatin) was “no significant difference” and the percent viability (MDA-MB-231 cells [3]; chemo-treated cells) was 80%. For the same molecule, the percent viability (MDA-MB-231 cells [3]; non-treated cells) was 20%, the “decrease in percent viability” value (MDA-MB-231 cells [3]; non-treated cells, 100 to 120 μg/ml carboplatin) was 30% and the “decrease in percent viability” value (MDA-MB-231 cells [3]; non-treated cells, 140 to 170 μg/ml carboplatin) was 40%. For the same molecule, the “decrease in percent viability” value (MDA-MB-231 cells [3]; non-treated cells, 170 to 220 μg/ml carboplatin) was 80%, the “decrease in percent viability” value (MDA-MB-231 cells [3]; treated (chemoresistant) cells, 100 to 120 μg/ml carboplatin) was 10% and the “decrease in percent viability” value (MDA-MB-231 cells [3]; treated (chemoresistant) cells, 140 to 170 μg/ml carboplatin) was 20%. The “decrease in percent viability” value (MDA-MB-231 cells [3]; treated (chemoresistant) cells, 170 to 220 μg/ml carboplatin) was 20%, the Bcl-2 expression [4] was “increased” and the Oct-4 expression [4] was “increased”. For the same molecule, the Sox2 expression [4] was “increased”, the “CD44^+/CD24^+ cells” value (T47D cells [5]) was 29% and the “CD44^+/CD24^− cells” value (T47D cells [5]) was 0.01%. The “CD44^−/CD24^− cells” value (T47D cells [5]) was 0.99%, the “CD44^−/low/CD24^+ cells” value (T47D cells [5]) was 70% and the cell morphology (MDA-MB-231 cells [6]; 7 days post carboplatin treatment) was “fragmented and appeared to be dying”. For the same molecule, the “giant multi-nucleated cells in culture” value (MDA-MB-231 cells [6]; several hours post treatment with carboplatin) was “no longer present”, the “CD44^+/CD24^+ cells” value (MDA-MB-231 cells [7]) was 81.4% and the “CD44^+/CD24^− cells” value (MDA-MB-231 cells [7]) was 18%. For the same molecule, the “CD44^−/CD24^+ cells” value (MDA-MB-231 cells [7]) was 0.09% and the “CD44^−/CD24^− cells” value (MDA-MB-231 cells [7]) was 0.51%.
